“Also recorded” adds a separate entry of the source. Peptide text beside a SMILES is read from it. * marks the point of attachment. X1 = COC(=O)CC(N*)C(=O)COc1c(F)cccc1F; Quinaldoyl = O=C(c1ccc2ccccc2n1)*
Columns and labels:
[1] = target: T1, caspase-2 (Rattus norvegicus, UniProt P55215); assay: Dosage of caspase-2 activity in myocardial tissue, chronic ischemia (PMI) model; format: in vivo; conditions: PMI 72 h; for caspase-2 activity: pre-treated rats, left ventricle (VG) and septum, 1 mg/kg
T1 construct: Each fragment of tissue was rapidly frozen in liquid nitrogen and kept at −80° C; from tissue; host or cells: rat myocardium (left ventricle, right ventricle, septum, apex) extracts
T1 sequence (P55215 170-325 limits assumed): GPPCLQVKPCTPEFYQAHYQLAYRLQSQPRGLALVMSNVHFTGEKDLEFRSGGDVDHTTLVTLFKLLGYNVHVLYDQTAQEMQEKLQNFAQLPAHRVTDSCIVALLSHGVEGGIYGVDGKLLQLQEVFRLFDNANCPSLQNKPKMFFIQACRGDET
T1 sequence (P55215 348-452 limits assumed): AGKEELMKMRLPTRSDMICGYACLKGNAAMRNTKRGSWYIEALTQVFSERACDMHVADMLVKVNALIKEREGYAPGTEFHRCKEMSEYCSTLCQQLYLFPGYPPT

[2] = system: ventricular cardiomyocytes; assay: Patch-clamp electrophysiological recordings on ventricular cardiomyocytes of PMI rats; format: in vivo, rat; conditions: for density of transitory current coming out (Ito): cardiomyocytes of the sub-epicardic layer; for membrane capacity (cellular size; hypertrophy induced by myocardial ischemia): cardiomyocytes after 4-5 months
Description: The isolated ventricular cardiomyocytes were obtained by enzymatic dissociation with collagenase by Langendorf reversed perfusion (Fauconnier, 2005). The rats were heparinized (0.2 ml, GIBCO® 1000 Ul/ml) and anaesthetized by intraperitoneal injection of pentobarbital ([…], Sanofi Santé, France). The heart was rapidly excised and a retrograde perfusion through the aorta, was performed for 5 min with a calcium-free washing solution (in mM: NaCl 117, KCl 5.7, NaHCO3 4.4, KH2PO4 1.5, MgCl2 1.7, HEPES 21, glucose 11, taurine 20, pH 7.2 (adjusted with NaOH) and O2-bubbled) at 37° C. The solution was then replaced by a similar medium containing 1.3 mg·ml^−1 of collagenase of type IV (Worthington, Freehold, N.J., USA) and perfused during 20-30 min. The heart was then perfused with the initial solution containing 2,3-butanedione monoxime as inhibitor of the muscular contraction (15 mM BDM). The ventricles were then delicately separated and, by mechanic stirring, the cardiomyocytes were liberated in the medium. The dissociated cells were washed in the same solution wherein increased concentrations of CaCl2 were added (0.3, 1, 1.8 mM). The cells of the sub-epicardial layer (EPI) were separated from the sub-endocardial layer (ENDO) by simple manual dissection.
The potentials of action (PA) and ionic currents were measured by the patch-clamp technique in whole cell configuration using an amplifier RK 400 (Biologic, Claix France) interfaced by a analogical/numerical converter DIGIDATA 1200 (Axon Instrument, Sunnyvale, Calif., USA) controlled by a PC. The acquisition and analysis of the data were realized with pCLAMP program (Axon Instrument, Sunnyvale, Calif., USA). The sampling frequency was of 10 KHz and the signals filtrated at 3 KHz. Pipettes comprised between 1 and 1.5 MΩ were used to ensure a good quality of voltage. For the measure of the potentials of action, the pipettes were filled with an internal solution (in mM: 130 KCl, 25 HEPES, 3 MgATP, 0.4 NaGTP, and 0.5 EGTA; the pH was adjusted at 7.2 with KOH). The external medium was composed of (in mM): 135 NaCl, 1 MgCl2, 4 KCl, 11 glucose, 2 HEPES, and 1.8 CaCl2; the pH was adjusted to 7.2. with NaOH.
The PA were started by injections of current of 0.2 ms at an intensity slightly higher than the supraliminal intensity threshold. The transitory potassium current coming out (Ito) was measured with the same internal and external solution (10 μM of tetrodotoxine (TTX) and 2 mM of cobalt chloride were added to the external medium to become independent from the […] and calcic currents, respectively. Ito was measured from depolarizing pulses.
The patch-clamp electrophysiological technique enables the membrane capacity (which reflects the cellular size) to be measured (this capacity reflects the cellular size). The results obtained with the above animals groups confirm the hypertrophy induced by the myocardial ischemia.

[3] = system: single ventricular cardiomyocytes; assay: Ca2+ handling and cell shortening of cardiomyocytes isolated after ischemia-reperfusion; format: in vivo, rat; conditions: 30 min ischemia, 10 days reperfusion; for sarcoplasmic reticulum Ca2+ load: 10 mM caffeine, versus sham-operated; for amplitude of cytosolic Ca2+ transients: 0.5 Hz field stimulation
Description: Experiments were carried out on single ventricular cardiomyocytes isolated from rats after 30 minutes of myocardial ischemia followed by 10 days of reperfusion. Cardiomyocytes were loaded with a fluorescent calcium indicator (Fluo4) in order to measure calcium transient evoked by 0.5 Hz field stimulation. Cell shortening was also simultaneously recorded as an index of cardiomyocyte contraction. […] These deleterious effects classically reported by others in similar experimental conditions Under TRP601 or QV-D-oph treatment Ca^2+ transients amplitude was unchanged B. Similarly, Ca^2+ release kinetics estimated by the amplitude/time to peak (TT) ratio was slowed down in cardiomyocytes of untreated animals, whereas under TRP601 or QV-D-oph treatment Ca^2+ release was unaffected. C. Altered Ca^2+ transient kinetics in vehicle-treated animal are accompanied by a decrease in sarcoplasmic reticulum Ca^2+ load (estimated by application of 10 mM caffeine). […] (*p<0.05 compared to sham-operated animals, n≧5 animals).

| SMILES | caspase-2 activity [1] | caspase-2 basal activity ([1]; right ventricular (RV)) | density of transitory current coming out (Ito) [2] | membrane capacity (cellular size; hypertrophy induced by myocardial ischemia) ([2]; pre-treatment) | potential of action (PA) duration remodeling, transmural EPI/ENDO gradient ([2]; pre-treatment, sub-epicardial and sub-endocardial cardiomyocytes) | Ca2+ release kinetics (amplitude/time to peak ratio) [3] | cell shortening [3] | sarcoplasmic reticulum Ca2+ load [3] | amplitude of cytosolic Ca2+ transients [3] |
| --- | --- | --- | --- | --- | --- | --- | --- | --- | --- |
| COC(=O)CC(NC(=O)[C@H](C)NC(=O)[C@@H](NC(=O)[C@H](CC(=O)OC)NC(=O)[C@@H](NC(=O)c1ccc2ccccc2n1)C(C)C)C(C)C)C(=O)COc1c(F)cccc1F (stereo partly drawn) [D1, (3S,6S,9S,12S)-methyl 15-(2-(2,6-difluorophenoxy)acetyl)-3,9-diisopropyl-6-(2-methoxy-2-oxoethyl)-12-methyl-1,4,7,10,13-pentaoxo-1-(quinolin-2-yl)-2,5,8,11,14-pentaazaheptadecan-17-oate] (Quinaldoyl-VD(OMe)VA-X1) | inhibited | weak inhibition | very preserved; also recorded: significantly restored | highly prevented | total absence of PA remodeling | unaffected | avoided cell shortening decreasing | not significantly different | unchanged |
| CC(C)[C@H](NC(=O)c1ccc2ccccc2n1)C(=O)N[C@@H](CC(=O)O)C(=O)COc1c(F)cccc1F [Q-VD-OPH] | inhibited | – | do not present any improvement; also recorded: no effect | has not effect | – | unaffected | avoided cell shortening decreasing | not significantly different | unchanged |

Reference: patent US20100184703A1, “USE OF PEPTIDE DERIVATIVES FOR TREATING PATHOLOGIES RESULTING FROM ISCHEMIA” (CHIESI FARMACEUTICI S.p.A., priority 2007, published 2010)
